Test results taken from patent publication US8337835B2, “Use of an endogenous ligand for peroxisome proliferator activated receptor alpha to treat liver disorders” (priority 2009, dated 2012).

Test system: PPARα-dependent genes ACO and CPT-1
Assay: Portal vein infusion, hepatic ACO and CPT-1 mRNA by RT-PCR
Type: in vivo, mouse
Details: 10 mg/kg intraportal three times a day
Protocol: Total RNA was extracted from Hepa 1-6 cells and liver using Trizol (Invitrogen) and treated with DNase I (RNase-free, Roche Molecular Biochemicals). Reverse transcription to cDNA and real-time quantitative PCR were performed using previously published procedures and primer-probe sequences for ACO and CPT-1 (Chakravarthy et al., 2005). RT-PCR for ChPT1 and CEPT1 was performed using the following primer-probe sets: ChPT1 (Forward, 5′-[…]-3′ (SEQ ID NO: 3); Reverse, 5′-[…]-3′ (SEQ ID NO: 4); Probe, 5′-[…]-3′ (SEQ ID NO: 5)); CEPT1 (Forward, 5′-TGCTGGACGGTCCCTTCTC-3′ (SEQ ID NO: 6); Reverse, 5′-[…]-3′ (SEQ ID NO: 7); Probe, 5′-[…]-3′ (SEQ ID NO: 8)). RNA not subjected to reverse transcription was included in each assay as a negative control. […] Relative mRNA levels were calculated using both the comparative CT and standard curve methods normalized to ribosomal protein L32, an invariant internal control. […]
The objectives were achieved by portal vein infusion of 1-palmitoyl-2-oleoyl-sn-glycerol-3-phosphocholine (16:0/18:1-GPC) to rescue PPARα^−/− mice from fatty liver disease or hepatic steatosis, liver tissue extraction, RT-PCR gene expression analysis of the extracted liver tissue and lipid and triglyceride assessment of the extracted liver tissue. […] Fat staining of liver is shown in FIG. 7C and liver triglyceride quantified in FIG. 7D. […]

## CCCCCCCC/C=C\CCCCCCCC(=O)O[C@H](COC(=O)CCCCCCCCCCCCCCC)COP(=O)([O-])OCC[N+](C)(C)C [16:0/18:1-GPC, 1-palmitoyl-2-oleoyl-sn-glycerol-3-phosphocholine]
PPARα-deficient mice
  hepatic ACO and CPT-1 expression: not in PPARα-deficient mice
Control (C57/BL6) mice
  hepatic ACO and CPT-1 expression: increased
